{"source": "patent US10143696B2", "about": "“Methods and compositions for decreasing gastric emptying” (priority 2015, dated 2018)", "key": {"[1]": {"tested_on": "Sprague-Dawley rats", "test": "Gastric secretion volume and pH in fasted rats", "assay_type": "in vivo, rat", "procedure": "Gastric section and acidity was assessed by direct measurement in fasted animals (Melo et al. (2006). “Effect of acid secretion blockade on acute gastric mucosal lesions induced by Tityus serrulatus scorpion toxin in anaesthetized rats.” Toxicon 48(5): 543-549). Rats were fasted with free access to water for 24 hours on wire inserts without bedding. The next day, all rats were dosed orally with 0.5% MC (5 ml/kg) to remove any residual stomach contents and test compound or vehicle was administered. The animals were water deprived for 3 hours, anesthetized with isoflurane (5% in O2), and a laparotomy was conducted followed by tight ligation of the pylorus and cardia. After ligation, the stomach was removed and the rat was immediately euthanized by decapitation. The stomach was opened along the greater curvature and gastric fluid collected into Eppendorf tubes and centrifuged (5 min at 10×1000 g). pH was determined by pipetting gastric fluid directly onto an indicator stick (Whatman, Panpeha Plus, pH0-14). Data are represented as the mean volume and mean pH.\nMale, Sprague-Dawley rats (weighing between 254-270 g each and 6 rats per test group) were fasted overnight (24 hours) on wire inserts without bedding. The rats were first orally dosed with 0.5% MC vehicle and then subcutaneously injected with 3 mg/kg or 10 mg/kg of Compound A with a 25% HPBCD vehicle or with a 25% HPBCD vehicle alone. The test animals were water deprived for 3 hours and then anesthetized with isoflurane and the pylorus and cardia were tightly ligated. The stomachs were then removed and the rats were euthanized. The gastric fluid was removed from the stomachs and collected in eppendorf tubes by cutting along the greatest curvature and spun in a centrifuge. Gastric secretion data were analyzed by a one-way ANOVA using a Bonferroni Multiple Comparison test, where *P<0.05 and **P<0.01 as compared to the appropriate vehicle. Data are represented as the means+S.E.M. PH data were analyzed by a one-way ANOVA using Dunnett's Multiple Comparison Test. Data are represented as the means+S.E.M.\nThis Example measured volume and pH of gastric secretion three hours post subcutaneous administration of 10 mg/kg of Compound A. The animals were water deprived during this time."}, "[2]": {"assay_type": "in vivo, cynomolgus monkeys", "procedure": "Compound A (10-100 mg/kg) was administered orally to cynomolgus monkeys and blood specimens were collected prior to dose administration and at target time points of 0.5, 1, 3, 5, 8, and 24 hours post-dose administration. Blood was collected via the femoral vein into tubes containing tripotassium ethylene-diamine-tetraacetic acid (K3EDTA) as the anticoagulant. Whole blood was centrifuged to obtain plasma (9000×g for 10 minutes at 4° C.) which was transferred into labeled tubes and stored at −80° C. Plasma calibration standards, blanks, and study samples were processed by protein precipitation. To a 50 μL aliquot 150 μL of a 10 ng/mL solution of an internal standard and 150 μL of acetonitrile was added. The mixture was eluted using positive pressure and analyzed by liquid chromatography/mass spectrometry/mass spectrometry with m/z transition of 462-417. Compound A concentrations were calculated using area response ratios and a regression line constructed from the concentrations and peak area response ratios of the calibration standards. […]. The lower limit of quantification (LLOQ) for the plasma method is approximately 0.5 ng/mL and the upper limit of quantification (ULOQ) is approximately 1000 ng/mL extracted from plasma using a 50-μL aliquot of sample.\nAs such, a pharmacokinetic and observational study was conducted in cynomologous monkeys (FIG. 16). Plasma concentrations of Compound A were measured following a single oral dose of 10, 50 and 100 mg/kg up to 24 hours post-dosing (FIGS. 16A, B and C)."}, "[3]": {"conditions": "Compound A 10 mg/kg s.c. alone, three hours post administration (Example 17)"}, "[4]": {"conditions": "s.c. 3, 10 mg/kg, 25% HPBCD, 3 hours (Example 10)"}}, "note": "Where two headings read alike, the source gives them in different places.", "data": [{"smiles": "C[C@H](Nc1cc(C(N)=O)nc(-c2ccc(Oc3ccc(OC(F)(F)F)cc3)cc2)n1)C(N)=O", "note": "[Compound A]", "values": [{"measurement": "pH of gastric secretion", "setting": "[1]; [3]", "value": "increase in gastric secretion and pH"}, {"measurement": "volume of gastric secretion", "setting": "[1]; [3]", "value": "increase in gastric secretion and pH"}, {"measurement": "volume and pH of gastric secretion", "setting": "[1]; lansoprazole 30 mg/kg p.o. 30 minutes prior to Compound A 10 mg/kg s.c. (Example 17)", "value": "not different from that achieved by Compound A alone"}, {"measurement": "pH of gastric secretion", "setting": "[1]; [4]", "value": "remains unaffected"}, {"measurement": "volume of gastric secretion", "setting": "[1]; [4]", "value": "increases with increasing dosages of Compound A"}, {"measurement": "time up to which plasma concentration continued increasing", "setting": "[2]; monkey, p.o. 10 mg/kg", "value": 8, "unit": "h"}, {"measurement": "time up to which plasma concentration continued increasing", "setting": "[2]; monkey, p.o. 50 mg/kg and 100 mg/kg", "value": 24, "unit": "h"}, {"measurement": "plasma levels versus dose", "setting": "[2]; monkey, single oral dose of 10, 50 and 100 mg/kg", "value": "increased with increasing dose in an approximately linear fashion"}, {"measurement": "plasma concentrations", "setting": "[2]; monkey, single oral dose of 10, 50 and 100 mg/kg, up to 24 hours", "value": "measurable at all doses"}, {"measurement": "plasma level of the individual monkey presenting the highest plasma levels", "setting": "[2]; p.o., at 24 hrs", "value": "over 3000 ng/ml"}]}]}
